Data published in ChEMBL document CHEMBL1156648, “Tetrahdroxysqualene from Rhus taitensis shows antimycobacterial activity against Mycobacterium tuberculosis” (J Nat Prod, 2008).
Values after ≈ are worked out from the molar mass of the structure shown. Active and inactive are the calls of the source. The rule behind the calls is not given here.

Tests used:
[1] = Cytotoxicity against human CEM-TART cells after 72 hrs by MTT assay; assay type: cell-based
[2] = system: Mycobacterium tuberculosis; experiment: Antimycobacterial activity against Mycobacterium tuberculosis H37Ra after 4 days by MTT assay; assay type: functional; conditions: 96 h
[3] = system: Mycobacterium tuberculosis; experiment: Antimycobacterial activity against Mycobacterium tuberculosis H37Rv by MTT assay after 4 days by MTT assay; assay type: functional; conditions: 96 h
[4] = system: Mycobacterium tuberculosis; experiment: Antimycobacterial activity against Mycobacterium tuberculosis H37Rv at 100 ug/ml after 4 days by MTT assay; assay type: functional; conditions: 96 h, read-out: GI
[5] = system: Mycobacterium tuberculosis; experiment: Antimycobacterial activity against Mycobacterium tuberculosis H37Ra at 200 ug/ml after 4 days by MTT assay; assay type: functional, organism-based

COc1cccc2c1C(=O)c1c(O)c3c(c(O)c1C2=O)C[C@@](O)(C(=O)CO)C[C@@H]3O[C@H]1C[C@H](N)[C@H](O)[C@H](C)O1 [DOXORUBICIN]
EC50 [1]: 0.0044 µg/mL (≈ 0.0081 µM)

CO[C@H]1/C=C/O[C@@]2(C)Oc3c(C)c(O)c4c(O)c(c(/C=N/N5CCN(C)CC5)c(O)c4c3C2=O)NC(=O)/C(C)=C\C=C\[C@H](C)[C@H](O)[C@@H](C)[C@@H](O)[C@@H](C)[C@H](OC(C)=O)[C@@H]1C [RIFAMPIN]
MIC [2]: 0.0025 µg/mL (≈ 0.00304 µM)
MIC [3]: 0.0025 µg/mL (≈ 0.00304 µM)

CC(C)=CCC/C(C)=C/CC/C(C)=C/CC/C=C(\C)CC/C=C(\C)CCC=C(C)C [SQUALENE]
MIC [3]: 100 µg/mL (≈ 243 µM)
inhibition of growth at 100 µg/mL [4]: 99%
Activity [5]: inactive

C/C(=C\CC/C(C)=C/CC/C=C(\C)CC/C=C(\C)CCC=C(CO)CO)CCC=C(CO)CO [TETRAHYDROXYSQUALENE]
MIC [2]: 10 µg/mL (≈ 21.1 µM)
EC50 [1]: 27.5 µg/mL (≈ 57.9 µM)
